# Measured values from patent EP1351977B1, “ANTIMICROBIAL PSEUDOPEPTIDES” (INSTITUT NATIONAL DE LA RECHERCHE AGRONOMIQUE (INRA), priority 2001, dated 2004).
# Where two headings read alike, the source gives them in different places. Ends that are not written are not given here.
# Experiments:
# Type in all cases: cell-based
# [1] = tested on: Cladosporium myc; assay: Antifungal growth inhibition test in liquid medium
# [2] = tested on: bactériophage lambda; assay: Antiviral test, lysis plaque method in Top-Agar on E. coli SURE
# Method: L'activité antivirale des pseudopeptides selon l'invention a été démontrée vis-à-vis du bactériophage lambda. Le bactériophage λ-ZAP est naturellement lytique sur la souche E. coli SURE (Stratagène). Cette activité lytique est mesurable par la méthode des plages de lyse en gélose Top-Agar. 2 µl d'une suspension de virus à 3,5 .10^5 pfu/ml dans du tampon SM ont été mis en présence de 2 µl du pseudopeptides compris dans le pic 8 à 0,5 mg/ml dans de l'eau pure. Après 15 min d'incubation à 37°C, la suspension est mélangée à 3,5 ml de Top-Agar pré-ensemencée avec E. coli SURE à 2 .10^5 cfu/ml. La concentration de pseudopeptide dans la gélose Top-Agar est inférieure à la CMI vis-à-vis de E. coli SURE. Le mélange est coulé en boîte de Pétri puis mis à incuber à 37°C pendant 12h. Le résultat est donné dans le tableau 6.
# [3] = tested on: Klebsiella pneumoniae; assay: Bacterial growth inhibition test in Petri dish (solid medium), MIC; conditions: MIC extrapolated from inhibition diameter vs log10 concentration
# [4] = tested on: Botrytis cinerea myc; assay: Antifungal growth inhibition test in liquid medium
# [5] = tested on: Staphylococcus epidermidis; assay: Bacterial growth inhibition test in Petri dish (solid medium), MIC; conditions: MIC extrapolated from inhibition diameter vs log10 concentration
# [6] = tested on: Botrytis cinerea sp; assay: Antifungal growth inhibition test in liquid medium
# [7] = tested on: Helminthosporium teres sp; assay: Antifungal growth inhibition test in liquid medium
# [8] = tested on: Serratia entomophila; assay: Bacterial growth inhibition test in Petri dish (solid medium), MIC; conditions: MIC extrapolated from inhibition diameter vs log10 concentration
# [9] = tested on: Piricularia oryzae sp
# [10] = tested on: Salmonella sp.; assay: Bacterial growth inhibition test in Petri dish (solid medium), MIC; conditions: MIC extrapolated from inhibition diameter vs log10 concentration
# Method: (§1) Deux tests ont été utilisés pour mesurer l'activité antibactérienne des pseudopeptides, un test d'inhibition de la croissance bactérienne en microplaques (de 96 puits) en milieu liquide et un test d'inhibition de la croissance bactérienne en boîte de Pétri en milieu solide. • * Test en microplaques: La culture bactérienne à tester est prélevée en phase exponentielle, puis diluée au 1/500^ème dans du milieu liquide TSB frais. Chaque puits de la microplaque est rempli avec 100 µl de suspension bactérienne diluée. Dans le premier puits, 100 µl de l'échantillon de pseudopeptide à tester est ajouté à la suspension bactérienne, puis l'échantillon est dilué de 2 en 2 en transférant d'un puits à l'autre 100 µl de suspension. La lecture de la microplaque se fait en mesurant la densité optique à […] (DO600nm) après 24h d'incubation à 28°C ou 37°C selon les bactéries cibles. Connaissant la concentration en pseudopeptide de l'échantillon de départ, ce test permet de déterminer la valeur de la CMI (Concentration Minimale d'Inhibition de la croissance bactérienne). Dans ce test, la CMI correspond à la concentration de l'échantillon pour lequel la DO600nm est inférieure à celle du témoin de culture. • * Test en boîte de Pétri: La culture bactérienne à tester est prélevée en phase exponentielle, puis incorporée à 10 ml d'une gélose dite "sous-couche" (Agarose 1% poids/vol; NaCl 100 mM; Trypcase 0.03 % poids/vol; Tampon phosphate 10 mM pH7.4) à raison de 2.10^5 bactéries/ml. Le mélange est coulé dans une boîte de Pétri ordinaire. 9 puits d'environ 10 µl de volume sont formés dans la "sous-couche" à l'aide d'un embout de pipette stérile de 10 ml. Ces puits sont remplis avec une série de dilutions des pseudopeptides à tester (concentration initiale 500 µg/ml, et dilution de deux en deux jusqu'à 1,95 µg/ml). Après diffusion à température ambiante pendant 2h, une gélose dite "sur-couche" (Agarose 1% wt/vol; Trypcase 6 % wt/vol; Tampon phosphate 10 mM pH7.4) est ajoutée sur la sous-couche à raison de 5 à 10 ml. Après solidification, l'ensemble est mis à incuber pendant une nuit. Le diamètre d'inhibition de la culture bactérienne autour de chaque puits est mesuré en mm; il existe une relation linéaire entre le diamètre d'inhibition et le log10 de la concentration en pseudopeptide qui permet de déterminer par extrapolation la valeur de la CMI.
# Une première série de résultats a été obtenue en utilisant le test en boîte de Pétri vis-à-vis de bactéries non pathogènes issues de la collection de Travaux pratiques du laboratoire de Pathologie Comparée de l'Université de Montpellier (France). Dans cette série, les pseudopeptides des pics 5, 7, 8,10 et 11 ont été testés (Tableau 4).
# [11] = tested on: Enterobacter aerogenes; assay: Bacterial growth inhibition test in microplates (liquid medium), MIC, nosocomial bacteria; conditions: microplate test, TSB, 24h; nosocomial strain
# Method: as §1
# (§2) Une seconde série de résultats a été obtenue en utilisant le test en microplaques vis-à-vis de bactéries nosocomiales issues de la collection du laboratoire de Bactériologie Médicale du Centre Hospitalier Universitaire de Nîmes (France). Dans cette série, seul le pseudopeptide contenu dans la fraction 8 a été testé (Tableau 5).
# [12] = tested on: Enterococcus sp.; assay: as above; conditions: microplate test, TSB, 24h; nosocomial strain
# Method: as §1, §2
# [13] = tested on: Stenotrophomonas maltophilia; assay: as above; conditions: microplate test, TSB, 24h; nosocomial strain
# Method: as §1, §2
# [14] = tested on: Staphylococcus aureus; assay: as above; conditions: microplate test, TSB, 24h; nosocomial strain
# Method: as §1, §2
# [15] = tested on: Pseudomonas aeruginosa; assay: as above; conditions: microplate test, TSB, 24h; nosocomial strain
# Method: as §1, §2
# [16] = tested on: Rhizoctonia solani myc; assay: Antifungal growth inhibition test in liquid medium
# [17] = tested on: Staphylococcus aureus; assay: Bacterial growth inhibition test in Petri dish (solid medium), MIC; conditions: MIC extrapolated from inhibition diameter vs log10 concentration
# [18] = tested on: Escherichia coli CIP548; assay: as above; conditions: MIC extrapolated from inhibition diameter vs log10 concentration
# [19] = tested on: Septoria tritici sp; assay: Antifungal growth inhibition test in liquid medium
substance,measurement,setting,value
Composé 8: pseudopeptide du pic n° 8 de Xenorhabdus nematophilus F1; Famille 1: Lys Lys Lys Lys Lys Gly; 1066 Da; structure en Figure 2 (KKKKKG; also: pseudopeptide modifications),pourcentage d'inhibition de croissance,[1]; 10 ppm,70%
same,pourcentage d'inhibition de croissance,[1]; 20 ppm,92%
same,pourcentage d'inhibition de croissance,[1]; 40 ppm,91%
same,inhibition du cycle lytique du bactériophage lambda,[2]; 250 µg/ml,> 95%
same,Nbre de pfu/boîte,"[2]; in presence of pseudopeptide, 15 min pre-incubation at 37°C with phage, control without pseudopeptide 700 ±50",40 ± 5 pfu/boîte
same,CMI,[3],15 µg/mL
same,pourcentage d'inhibition de croissance,[4]; 10 ppm,40%
same,pourcentage d'inhibition de croissance,[4]; 20 ppm,70%
same,pourcentage d'inhibition de croissance,[4]; 40 ppm,93%
same,CMI,[5],30 µg/mL
same,pourcentage d'inhibition de croissance,[6]; 10 ppm,52%
same,pourcentage d'inhibition de croissance,[6]; 20 ppm,95%
same,pourcentage d'inhibition de croissance,[6]; 40 ppm,94%
same,pourcentage d'inhibition de croissance,[7]; 10 ppm,76%
same,pourcentage d'inhibition de croissance,[7]; 20 ppm,94%
same,pourcentage d'inhibition de croissance,[7]; 40 ppm,92%
same,CMI,[8],30 µg/mL
same,pourcentage d'inhibition de croissance,[9]; 10 ppm,30%
same,pourcentage d'inhibition de croissance,[9]; 20 ppm,35%
same,pourcentage d'inhibition de croissance,[9]; 40 ppm,45%
same,CMI,[10],30 µg/mL
same,CMI,[11],25 µg/mL
same,CMI,[12],"12,5 µg/ml"
same,CMI,[13],25 µg/mL
same,CMI,[14],25 µg/mL
same,CMI,[15],"12,5 µg/ml"
same,pourcentage d'inhibition de croissance,[16]; 10 ppm,56%
same,pourcentage d'inhibition de croissance,[16]; 20 ppm,91%
same,pourcentage d'inhibition de croissance,[16]; 40 ppm,93%
same,CMI,[17],15 µg/mL
same,CMI,[18],"7,5 µg/ml"
same,pourcentage d'inhibition de croissance,[19]; 10 ppm,87%
same,pourcentage d'inhibition de croissance,[19]; 20 ppm,88%
same,pourcentage d'inhibition de croissance,[19]; 40 ppm,86%
